Results reported in US9783490B2, “Antimicrobial compounds, their synthesis and applications thereof” (The Secretary of State for Health, priority 2012, dated 2017).
Where two headings read alike, the source gives them in different places.

Assays:
[1] = system: human RBCs; assay: Haemolytic activity (HC50); format: cell-based
Protocol: Erythrocytes are isolated from freshly drawn, heparinized human blood and re-suspended to 5 vol % in PBS (pH 7.4). In a 96-well microtiter plate, 150 μl of erythrocyte suspension is added to 50 μl of serially diluted compound. Two controls are made, one without compound and other with 50 μl of 1 vol % solution of Triton X-100. The plate is incubated for about 1 hr at a temperature of about 37° C. The plate is then centrifuged at 3,500 rpm for about 5 min, 100 μl of the supernatant from each well is transferred to a fresh microtiter plate, and absorbance at 540 nm is measured. Percentage of hemolysis is determined as (A−A0)/(Atotal−A0)×100, where A is the absorbance of the test well, A0 the absorbance of the negative controls (without compound), and A total the absorbance of 100% hemolysis wells (with Triton X-100), when absorbance is read at 540 nm.
Toxicity studies of the compounds are carried out on freshly drawn human RBCs. Toxicity of the antimicrobial compounds of the present disclosure is defined by their HC50 values illustrated in Table 3, i.e. the concentration of compound at which 50% of the blood cells are lysed. Haemolytic studies conducted herein illustrates that the antimicrobial compounds provided by the instant disclosure are selective towards drug sensitive bacteria and drug resistant bacteria over human RBCs, thus establishing the non-toxicity of the present compounds.

[2] = system: E. coli (MTCC 443); assay: Minimum Inhibitory Concentration, micro-dilution broth; format: cell-based, Escherichia coli; settings: for Minimum Inhibitory Concentration E. coli: Drug sensitive bacteria
Protocol: (§1) Microorganisms and Culture Conditions: Bacterial strains, S. aureus (MTCC 737) and E. coli (MTCC 443) are purchased from MTCC (Chandigarh, India). MRSA (ATCC 33591), Pseudomonas aeruginosa (ATCC 4676), […]-lactamase producing and drug-resistant Klebsiella pneumonia (ATCC700603), Enterococcus faecium (ATCC 19634) and vancomycin resistant Enterococcus faecium (ATCC 51559) are obtained from ATCC (Rockville, Md., USA).
(§2) E. coli is cultured in Luria Bertani broth (10 g of tryptone, 5 g of yeast extract, and 10 g of NaCl in 1000 mL of sterile distilled water (pH −7) while S. aureus, Pseudomonas aeruginosa (ATCC 4676) and MRSA are grown in Yeast-dextrose broth (1 g of beef extract, 2 g of yeast extract, 5 g of peptone and 5 g of NaCl in 1000 mL of sterile distilled water). For all Enterococcus faecium, Brain Heart Infusion broth (BHI) is used. For solid media 5% agar was used along with above mentioned composition. K. pneumonia was grown in nutrient media (3 g of beef extract and 5 g of peptone in 1000 mL of sterile distilled water). The bacterial samples were freeze dried and stored at −80° C. 5 μl of these stocks were added to 3 mL of the nutrient broth and the culture was grown for 6 h at 37° C. prior to the experiments.
(§3) Antibacterial activity is reported as Minimum Inhibitory Concentration (MIC), i.e. the lowest concentration of the antimicrobial agent that will inhibit the growth of a microorganism after overnight incubation. Water-soluble ACK, NCK and BCK series of compounds are assayed in a modified micro-dilution broth format. Stock solutions are made by serially diluting the compounds using autoclaved Millipore water. Bacteria, to be tested are grown for about 6 hrs in the suitable media containing ˜10^9 cfu/mL (determined through dilution plate technique by spread plate method), which is then diluted to 10^5 cfu/mL using nutrient media. 50 μL of serially diluted compound is added to a 96 well plate containing 150 μL bacterial solutions. Two controls are made; one containing 150 μL of media and 50 μL of compound and the other containing 200 μL of bacterial solution. […] MIC value is determined by taking the average of triplicate O.D. values for each concentration and plotting it against concentration using Origin Pro 8.0 software. The data is then subjected to sigmoidal fitting. From the curve, MIC value is determined, as the point in the curve where the O.D. is similar to that of control having no bacteria. The MIC values and errors of independent experiments are reported as average and standard deviation of triplicates.

[3] = system: MRSA (ATCC 33591); assay: as above; format: cell-based, Methicillin resistant S. aureus; settings: for Minimum Inhibitory Concentration MRSA: Drug resistant bacteria
Protocol: as §1, §2, §3

[4] = system: S. aureus (MTCC 737); assay: as above; format: cell-based, Staphylococcus aureus; settings: for Minimum Inhibitory Concentration S. aureus: Drug sensitive bacteria
Protocol: as §1, §2, §3

[5] = system: Pseudomonas aeruginosa (ATCC 4676); assay: as above; format: cell-based; settings: for Minimum Inhibitory Concentration P. aeruginosa: Drug sensitive bacteria
Protocol: as §1, §2, §3

[6] = system: Enterococcus faecium (ATCC 19634); assay: as above; format: cell-based; settings: for Minimum Inhibitory Concentration E. faecium: Drug sensitive bacteria
Protocol: as §1, §2, §3

[7] = system: drug-resistant Klebsiella pneumonia (ATCC700603); assay: as above; format: cell-based; settings: for Minimum Inhibitory Concentration K. pneumonia: Drug resistant bacteria
Protocol: as §1, §2, §3

[8] = system: vancomycin resistant Enterococcus faecium (ATCC 51559); assay: as above; format: cell-based; settings: for Minimum Inhibitory Concentration VRE: Drug resistant bacteria
Protocol: as §1, §2, §3

[9] = concentration at which 50% of the blood cells are lysed, human RBCs

| Compound | HC50 [1] [µg/mL] | Minimum Inhibitory Concentration E. coli [2] [µg/mL] | Minimum Inhibitory Concentration MRSA [3] [µg/mL] | Minimum Inhibitory Concentration S. aureus [4] [µg/mL] | Minimum Inhibitory Concentration P. aeruginosa [5] [µg/mL] | Minimum Inhibitory Concentration E. faecium [6] [µg/mL] | Minimum Inhibitory Concentration K. pneumonia [7] [µg/mL] | HC50 [1, 9] [µg/mL] | MIC value against P. aeruginosa [5] | Minimum Inhibitory Concentration VRE [8] [µg/mL] | MIC value against E. coli [2] | MIC value against methicillin-resistant S. aureus [3] | MIC value against S. aureus [4] | MIC value against vancomycin-resistant E. faecium [8] | MIC value against E. faecium [6] | MIC value against K. pneumonia [7] |
| --- | --- | --- | --- | --- | --- | --- | --- | --- | --- | --- | --- | --- | --- | --- | --- | --- |
| CCCCCCN(Cc1ccccc1)C(=O)[C@@H](N)CCCCN.O=C(O)C(F)(F)F [BCK-6, Lys-N-hexyl-1-Aminomethylbenzene trifluoroacetate] | >1000 | >100 | >100 | >100 | >100 | >100 | >100 | – | – | – | – | – | – | – | – | – |
| CCCCCCN(Cc1cccc2ccccc12)C(=O)[C@@H](N)CCCCN.O=C(O)C(F)(F)F [NCK-6, Lys-N-hexyl-1-Aminomethylnaphthalene trifluoroacetate] | – | 25 | 65 | 20 | 11 | 34 | 100 | 508 | about 11 μg/ml | 54 | – | – | – | – | – | – |
| CCCCN(Cc1ccccc1)C(=O)[C@@H](N)CCCCN.O=C(O)C(F)(F)F [BCK-4, Lys-N-butyl-1-Aminomethylbenzene trifluoroacetate] | >1000 | >100 | >100 | >100 | >100 | >100 | >100 | – | – | – | – | – | – | – | – | – |
| CCCCN(Cc1ccc(-c2ccccc2)cc1)C(=O)[C@@H](N)CCCCN [Compound 6a, Lys-N-Butyl-1-Aminomethylbiphenyl] | – | – | – | 60 | – | – | – | – | – | – | – | – | – | – | – | – |
| CCCCN(Cc1c2ccccc2c(Cl)c2ccccc12)C(=O)C(N)CCCCN.O=C(O)C(F)(F)F (centres unmarked) [ACK-4, Lys-N-butyl-10-Aminomethyl-9-chloroanthracene trifluoroacetate] | – | 4.8 | 6.3 | 5.3 | 1.9 | 4.5 | 17 | 91 | ~1.9 µg/mL | 5.3 | about 4.8 μg/ml | about 6.3 μg/ml | about 5.3 μg/ml | about 5.3 μg/ml | about 4.5 μg/ml | about 17 μg/ml |
| CCCCCCCCCCCCCCN(Cc1ccccc1)C(=O)C(N)CCCCN.O=C(O)C(F)(F)F (centres unmarked) [BCK-14, Lys-N-tetradecyl-1-Aminomethylbenzene trifluoroacetates] | – | 3.1 | 2.5 | 3.1 | 2.8 | 2 | 4 | 50 | ~2.8 µg/mL | 2.5 | ~3.1 µg/mL | ~2.5 µg/mL | ~3.1 µg/mL | ~2.5 µg/mL | ~2 µg/mL | ~4 µg/mL |
| CCCCCCCCCCN(Cc1ccccc1)C(=O)[C@@H](N)CCCCN.O=C(O)C(F)(F)F [BCK-10, Lys-N-decyl-1-Aminomethylbenzene trifluoroacetates] | – | 6.5 | 15.7 | 5.7 | 4 | 6.5 | 31 | 95 | about 4 μg/ml | 5.8 | about 6.5 μg/ml | about 15.7 μg/ml | about 5.7 μg/ml | about 5.8 μg/ml | about 6.5 μg/ml | about 31 μg/ml |
| CCCCCCCCN(Cc1c2ccccc2cc2ccccc12)C(=O)[C@@H](N)CCCCN.O=C(O)C(F)(F)F [Compound 8c, Lys-N-octyl-9-Aminomethylanthracene trifluoroacetate] | 42 | – | 3.6 | 2.2 | – | – | – | – | – | – | – | – | – | – | – | – |
| CCN(Cc1c2ccccc2c(Cl)c2ccccc12)C(=O)C(N)CCCCN.O=C(O)C(F)(F)F (centres unmarked) [ACK-2, Lys-N-ethyl-10-Aminomethyl-9-chloroanthracene trifluoroacetate] | – | 25 | 21 | 11 | 4 | 13.6 | 31 | 118 | about 4 μg/ml | 7.2 | – | – | – | – | – | – |
| CCCCCCN(Cc1c2ccccc2c(Cl)c2ccccc12)C(=O)C(N)CCCCN.O=C(O)C(F)(F)F (centres unmarked) [ACK-6, Lys-N-hexyl-10-Aminomethyl-9-chloroanthracene trifluoroacetate] | – | 3.5 | 2.8 | 2.4 | 1.6 | 3.3 | 16 | 82 | ~1.6 µg/mL | 5.2 | ~3.5 µg/mL | ~2.8 µg/mL | ~2.4 µg/mL | ~5.2 µg/mL | ~3.3 µg/mL | ~16 µg/mL |
| CCCCCCN(Cc1ccc(-c2ccccc2)cc1)C(=O)[C@@H](N)CCCCN [Compound 6b, Lys-N-hexyl-1-Aminomethylbiphenyl] | – | – | – | 7.5 | – | – | – | – | – | – | – | – | – | – | – | – |
| CCCCCCCCN(Cc1ccc(-c2ccccc2)cc1)C(=O)C(N)CCCCN (centres unmarked) [Compound 6c, Lys-N-octyl-1-Aminomethylbiphenyl] | – | – | – | 1.3 | – | – | – | – | – | – | – | – | – | – | – | – |
